# Assay results as given in patent US20150065717A1, “NIPECOTIC ACID DERIVATIVE AND USE THEREOF FOR MEDICAL PURPOSES” (Toray Industries, Inc., priority 2012, published 2015).
# pIC50: −log10 of the molar value.
# Molecular target: T1, recombinant human sEH (Homo sapiens, UniProt P34913)
# T1 construct: purchased Cayman
# T1 sequence (P34913 1-555): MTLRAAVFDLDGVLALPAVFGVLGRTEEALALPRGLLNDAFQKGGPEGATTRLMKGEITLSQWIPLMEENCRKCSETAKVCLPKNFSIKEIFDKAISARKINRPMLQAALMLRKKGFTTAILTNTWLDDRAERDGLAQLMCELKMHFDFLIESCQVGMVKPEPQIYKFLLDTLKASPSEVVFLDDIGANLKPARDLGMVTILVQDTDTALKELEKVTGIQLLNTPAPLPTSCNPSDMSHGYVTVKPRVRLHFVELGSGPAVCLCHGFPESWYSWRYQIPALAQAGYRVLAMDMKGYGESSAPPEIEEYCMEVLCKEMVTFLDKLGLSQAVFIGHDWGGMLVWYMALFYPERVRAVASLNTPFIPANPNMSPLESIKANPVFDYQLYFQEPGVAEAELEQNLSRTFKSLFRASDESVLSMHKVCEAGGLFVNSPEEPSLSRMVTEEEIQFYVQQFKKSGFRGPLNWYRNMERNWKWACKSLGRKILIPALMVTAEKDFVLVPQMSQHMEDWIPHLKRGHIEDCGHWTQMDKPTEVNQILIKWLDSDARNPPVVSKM
# Assay: In vitro evaluation test for sEH inhibitory activity
# Assay type: biochemical
# Conditions: recombinant human sEH 0.026 μg/mL, fluorescent substrate 6.25 μmol/L, room temperature
# Procedure: According to the method described in a known document (Analytical Biochemistry, 2005, vol. 343, p. 66-75), the sEH inhibitory activity of each nipecotic acid derivative (I) or a pharmaceutically acceptable salt thereof was evaluated using human sEH.
# A recombinant human sEH (final concentration, 0.026 μg/mL; Cayman) was incubated with each test compound in 25 mM Bis-Tris-HCl buffer (pH 7.0) supplemented with 0.1 mg/mL BSA at room temperature for 30 minutes. Thereafter, cyano(6-methoxynaphthalen-2-yl)methyl 2-(3-phenyloxiran-2-yl)acetate (final concentration, 6.25 μmol/L; Cayman) was added thereto as a fluorescent substrate, and the resulting mixture was incubated at room temperature for 20 minutes. The reaction was then stopped by addition of ZnSO4 (final concentration, 0.2 mol/L), and the fluorescence intensity was measured (Fusion α (Packard); Excitation: 330 nm, Emission:485 nm).
# The fluorescence intensity observed with addition of neither sEH nor a test compound was regarded as the sEH enzymatic reaction rate of 0%, and the fluorescence intensity observed with addition of sEH but without addition of a test compound was regarded as the sEH enzymatic reaction rate of 100%. From the obtained fluorescence intensity, the sEH enzymatic reaction rate of each test compound was calculated to determine IC50.
row,pIC50,SMILES
1,8.77,"CC(=O)NC1(C(=O)N2CCC[C@@H](C(=O)NCc3ccc(C#N)cc3OC(F)(F)F)C2)CCCC1 [Example Compound 8, (R)-1-(1-acetamidocyclopentanecarbonyl)-N-(4-cyano-2-(trifluoromethoxy)benzyl)piperidine-3-carboxamide]"
2,8.68,"O=C(NCc1ccc(Cl)cc1Cl)[C@@H]1CCCN(C(=O)C2(O)CCCCC2)C1 [Example Compound 38, (R)—N-(2,4-dichlorobenzyl)-1-(1-hydroxycyclohexanecarbonyl)piperidine-3-carboxamide]"
3,9.00,"CC(C)(O)[C@@H](NS(C)(=O)=O)C(=O)N1CCC[C@@H](C(=O)NCc2ccc(C#N)cc2OC(F)(F)F)C1 [Example Compound 32, (R)—N-(4-cyano-2-(trifluoromethoxy)benzyl)-1-((R)-3-hydroxy-3-methyl-2-(methylsulfonamido)butanoyl)piperidine-3-carboxamide]"
4,8.17,"N#Cc1ccc(CNC(=O)[C@@H]2CCCN(C(=O)C3(NC(=O)CC4CC4)CC3)C2)c(OC(F)(F)F)c1 [Example Compound 35, (R)—N-(4-cyano-2-(trifluoromethoxy)benzyl)-1-(1-(2-cyclopropylacetamido)cyclopropanecarbonyl)piperidine-3-carboxamide]"
5,8.59,"CC(C)(NS(C)(=O)=O)C(=O)N1CCC[C@@H](C(=O)NCc2ccc(Cl)cc2OCC(F)(F)F)C1 [Example Compound 10, (R)—N-(4-chloro-2-(2,2,2-trifluoroethoxy)benzyl)-1-(2-methyl-2-(methylsulfonamido)propanoyl)piperidine-3-carboxamide]"
6,8.80,"CN(C1(C(=O)N2CCC[C@@H](C(=O)NCc3ccc(C#N)cc3OC(F)(F)F)C2)CC1)S(C)(=O)=O [Example Compound 18, (R)—N-(4-cyano-2-(trifluoromethoxy)benzyl)-1-(1-(N-methylmethylsulfonamido)cyclopropanecarbonyl)piperidine-3-carboxamide]"
7,8.21,"CC(=O)NC1(C(=O)N2CCC[C@@H](C(=O)NCc3ccc(C#N)cc3OC(F)(F)F)C2)CCC1 [Example Compound 9, (R)-1-(1-acetamidocyclobutanecarbonyl)-N-(4-cyano-2-(trifluoromethoxy)benzyl)piperidine-3-carboxamide]"
8,9.05,"CC[C@@H](NC(C)=O)C(=O)N1CCC[C@@H](C(=O)NCc2ccc(C#N)cc2OC(F)(F)F)C1 [Example Compound 21, (R)-1-((R)-2-acetamidobutanoyl)-N-(4-cyano-2-(trifluoromethoxy)benzyl)piperidine-3-carboxamide]"
9,9.52,"CC(C)[C@@H](NS(C)(=O)=O)C(=O)N1CCC[C@@H](C(=O)NCc2ccc(C#N)cc2OC(F)(F)F)C1 [Example Compound 12, (R)—N-(4-cyano-2-(trifluoromethoxy)benzyl)-1-((R)-3-methyl-2-(methylsulfonamido)butanoyl)piperidine-3-carboxamide]"
10,9.00,"N#Cc1ccc(CNC(=O)[C@@H]2CCCN(C(=O)C3(C(F)(F)F)CC3)C2)c(OC(F)(F)F)c1 [Example Compound 4, (R)—N-(4-cyano-2-(trifluoromethoxy)benzyl)-1-(1-(trifluoromethyl)cyclopropanecarbonyl)piperidine-3-carboxamide]"
11,9.15,CC(=O)N[C@@H](C(=O)N1CCC[C@@H](C(=O)NCc2ccc(Cl)cc2Cl)C1)C(C)(C)O [Example Compound 39]
12,8.89,"CC(C)(CO)C(=O)N1CCC[C@@H](C(=O)NCc2ccc(C#N)cc2OC(F)(F)F)C1 [Example Compound 19, (R)—N-(4-cyano-2-(trifluoromethoxy)benzyl)-1-(3-hydroxy-2,2-dimethylpropanoyl)piperidine-3-carboxamide]"
13,8.60,"CC(=O)N[C@H](C)C(=O)N1CCC[C@@H](C(=O)NCc2ccc(C#N)cc2OC(F)(F)F)C1 [Example Compound 24, (R)-1-((R)-2-acetamidopropanoyl)-N-(4-cyano-2-(trifluoromethoxy)benzyl)piperidine-3-carboxamide]"
14,8.24,"CC(C)C(=O)NC1(C(=O)N2CCC[C@@H](C(=O)NCc3ccc(C#N)cc3OC(F)(F)F)C2)CC1 [Example Compound 26, (R)—N-(4-cyano-2-(trifluoromethoxy)benzyl)-1-(1-isobutylamidocyclopropanecarbonyl)piperidine-3-carboxamide]"
15,8.74,"C[C@@H](NS(C)(=O)=O)C(=O)N1CCC[C@@H](C(=O)NCc2ccc(C#N)cc2OC(F)(F)F)C1 [Example Compound 25, (R)—N-(4-cyano-2-(trifluoromethoxy)benzyl)-1-((R)-2-(methylsulfonamido)propanoyl)piperidine-3-carboxamide]"
16,8.85,"CC(=O)N[C@@H](C(=O)N1CCC[C@@H](C(=O)NCc2ccc(C#N)cc2OC(F)(F)F)C1)C(C)(C)O [Example Compound 30, (R)-1-((R)-2-acetamido-3-hydroxy-3-methylbutanoyl)-N-(4-cyano-2-(trifluoromethoxy)benzyl)piperidine-3-carboxamide]"

# System: rat diabetic nephropathy model
# Assay: Pharmacological effect in rat diabetic nephropathy model (streptozotocin)
# Assay type: in vivo, rat (spontaneously hypertensive rat)
# Conditions: Day 27 after streptozotocin; orally once per day for 20 days from Day 8 (Example Compound 1 10 mg/kg, imidapril 2 mg/kg); mean±standard error, n=6
# Procedure: Example Compound 1 was administered to a rat diabetic nephropathy model (International Journal of Molecular Medicine, 2007, vol. 19, p. 571-579; Hypertension, 1998, vol. 32, p. 778-785), and the therapeutic effect of the nipecotic acid derivative (I) or a pharmaceutically acceptable salt thereof on chronic renal disease with diabetic nephropathy was evaluated.
# Rats (spontaneously hypertensive rat, male, 12 or 13 weeks old; Charles River Laboratories Japan, Inc.) with diabetic nephropathy induced by administration of an aqueous streptozotocin (Enzo Life Sciences, Inc.) solution (40 mg/kg) into the tail vein were provided as “group with induced diabetic nephropathy”. On the other hand, rats to which water for injection was similarly administered were provided as “untreated group”.
# Six weeks after administration of streptozotocin, urine was collected using a metabolic cage at room temperature for 24 hours. The urinary albumin concentration in the collected urine was measured by the ELISA method. From the urinary albumin concentration and the urine weight, the amount of urinary albumin excretion was calculated.
# To rats showing pathological conditions of diabetic nephropathy in the group with induced diabetic nephropathy, Example Compound 1 (10 mg/kg) or a positive control compound imidapril (2 mg/kg) was orally administered once per day for 20 days from Day 8 after the administration of streptozotocin. […]
# After the last administration of the test substance on Day 27 after administration of streptozotocin, urine was collected using a metabolic cage at room temperature for 24 hours. The urinary albumin concentration in the collected urine was measured by the ELISA method. From the urinary albumin concentration and the urine weight, the amount of urinary albumin excretion was calculated. In addition, on Day 18 after administration of streptozotocin, the systemic systolic pressure was measured by the tail-cuff method. On Day 29 after administration of streptozotocin, blood was collected from the abdominal aorta of each rat, and the plasma glucose concentration was measured. […]
row,SMILES,amount of urinary albumin excretion [mg/day]
1,"CCOC(=O)[C@H](CCc1ccccc1)N[C@@H](C)C(=O)N1C(=O)N(C)C[C@H]1C(=O)O [imidapril, reference compound]",5.66 ± 0.91
